Source: patent publication US6632946B2, “Tetracyclic analogues of camptothecins, their preparation processes, their use as medicaments and the pharmaceutical compositions containing them” (Societe de Conseils de Recherches et d'Applications …, priority 1997, dated 2003)
Where two headings read alike, the source gives them in different places.

Experiments:
[1] = target: T1, calf thymus topoisomerase I (Bos taurus, UniProt F1MN93); settings: for PERCENTAGE OF RELAXED DNA: relaxed DNA with respect to total DNA, pUC 19, 37° C. 15 min
T1 sequence (F1MN93 1-767): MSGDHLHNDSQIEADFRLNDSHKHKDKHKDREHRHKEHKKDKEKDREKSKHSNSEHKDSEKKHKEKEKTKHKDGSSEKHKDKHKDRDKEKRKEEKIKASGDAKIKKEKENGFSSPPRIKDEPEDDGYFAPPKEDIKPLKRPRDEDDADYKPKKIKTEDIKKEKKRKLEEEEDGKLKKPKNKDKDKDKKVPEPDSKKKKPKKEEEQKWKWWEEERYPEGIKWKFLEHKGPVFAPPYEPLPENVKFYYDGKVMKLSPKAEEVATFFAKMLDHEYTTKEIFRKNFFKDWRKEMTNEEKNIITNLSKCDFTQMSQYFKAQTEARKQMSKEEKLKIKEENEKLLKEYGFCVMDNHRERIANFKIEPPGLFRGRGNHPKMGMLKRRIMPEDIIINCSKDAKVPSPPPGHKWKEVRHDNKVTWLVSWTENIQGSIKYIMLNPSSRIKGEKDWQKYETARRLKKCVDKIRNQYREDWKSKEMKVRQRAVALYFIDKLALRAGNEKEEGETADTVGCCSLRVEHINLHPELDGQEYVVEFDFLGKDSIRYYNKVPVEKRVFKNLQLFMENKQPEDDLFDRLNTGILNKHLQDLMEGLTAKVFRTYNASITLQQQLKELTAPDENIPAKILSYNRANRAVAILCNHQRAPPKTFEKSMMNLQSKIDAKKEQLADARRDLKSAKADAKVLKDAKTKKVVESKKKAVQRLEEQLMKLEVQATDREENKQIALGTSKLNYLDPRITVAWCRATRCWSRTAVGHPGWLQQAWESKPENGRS
Experimental: 1. Inhibition test of the relaxation of supercoiled DNA induced by topoisomerase I.
Supercoiled plasmidic DNA (pUC 19, Pharmacia Biotech, Orsay, France, 300 ng) is incubated at 37° C. for 15 min in the presence of calf thymus topoisomerase I (Gibco-BRL, Paisley, United Kingdom, 1 unit) in 20 μl of reaction buffer (Tris-HCl pH 7.5:50 mM, KCl: 50 mM, DTT: 0.5 mM, MgCl2: 10 mM, EDTA: 0.1 mM, bovine serum albumin: 0.030 mg/ml) and of a potentiel inhibitor (prepared in a 50 mM extemporaneous solution in dimethylsulphoxide, then diluted with distilled water in order to obtain a final concentration of 500 μM, 200 μM, 100 μM or 10 μM, not exceeding 1% of dimethylsulphoxide). The reaction is stopped by the addition of 3 μl of a denaturing solution (proteinase K: 500 μg/ml, sodium dodecylsulphate: 1%, EDTA: 20 mM) followed by incubation at 37° C. for 30 min, then 2 μl of a loading buffer (bromophenol blue: 0.3%, sodium hydrogen phosphate: 10 mM, polysucrose Ficoll®-400: 16%) are added and the sample is placed on a 1.2% agarose gel (Sea-Kem-GTG, FMC Bioproducts/Tebu, Perray-en-Yvelines, France) containing 2 μg/ml of chloroquine. The electrophoretic migration is carried out at a voltage of 1V/cm for 20 hours, with recirculation of the electrophoresis buffer (Tris-HCl: 36 mM, sodium dihydrogen phosphate: 30 mM, EDTA: 1 mM). The gel is then stained under agitation with 2 μg/ml ethidium bromide, then photographed under ultraviolet light at 312 nm (CCD camera Vilber-Lourmat, Lyon, France). Densitometric analysis (BioProfil image analyzer Vilber-Lourmat, Lyon, France) allows the percentage of relaxed DNA with respect to total DNA to be expressed, at the chosen concentration of inhibitor.

[2] = system: topoisomerase II; settings: for PERCENTAGE OF RELAXED DNA: relaxed DNA with respect to total DNA, pUC 19, 37° C. 15 min
Experimental: 2. Inhibition test of the relaxation of supercoiled DNA induced by topoisomerase II.
Supercoiled plasmidic DNA (pUC 19, Pharmacia Biotech, Orsay, France, 300 ng) is incubated at 37° C. for 15 min in the presence of calf thymus […] (Gibco-BRL, Paisley, United Kingdom, 7 units) in 20 μl of reaction buffer (Tris-HCl pH 7.9: 10 mM, KCl: 50 mM, NaCl: 50 mM, MgCl2: 5 mM, ATP: 1 mM, EDTA: […], bovine serum albumin: 15 mg/ml) and of a potential inhibitor (prepared in a 50 mM extemporaneous solution in dimethylsulphoxide, then diluted with distilled water in order to obtain a final concentration of 500 μM, 200 μM, 100 μM or 10 μM, not exceeding 1% of dimethylsulphoxide). The reaction is stopped by the addition of 3 μl of a denaturing solution (proteinase K: 500 μg/ml, sodium dodecylsulphate: 1%, EDTA: 20 mM) followed by incubation at 37° C. for 30 min, then 2 μl of a loading buffer (bromophenol blue: 0.3%, sodium hydrogen phosphate: 10 mM, polysucrose Ficoll®-400: 16%) are added and the sample is placed on a 1.2% agarose gel (Sea-Kem-GTG, FMC Bioproducts/Tebu, Perray-en-Yvelines, France) containing 2 μg/ml of chloroquine. The electrophoretic migration is carried out at a voltage of 1V/cm for 20 hours, with recirculation of the electophoresis buffer (Tris-HCl: 36 mM, sodium dihydrogen phosphate: 30 mM, EDTA: 1 mM). The gel is then stained under agitation with 2 μg/ml ethidium bromide, then photographed under ultraviolet light at 312 nm (CCD camera Vilber-Lourmat, Lyon, France). Densitometric analysis (BioProfil image analyzer Vilber-Lourmat, Lyon, France) allows the percentage of relaxed DNA with respect to the total DNA to be expressed, at the chosen concentration of inhibitor.

[3] = at concentrations greater than 10 μM

| SMILES | PERCENTAGE OF RELAXED DNA ([1]; inhibitor concentration 10 μM) | PERCENTAGE OF RELAXED DNA ([1]; inhibitor concentration 100 μM) | PERCENTAGE OF RELAXED DNA ([1]; inhibitor concentration 200 μM) | PERCENTAGE OF RELAXED DNA ([1]; inhibitor concentration 500 μM) | PERCENTAGE OF RELAXED DNA ([2]; inhibitor concentration 10 μM) | PERCENTAGE OF RELAXED DNA ([2]; inhibitor concentration 100 μM) | PERCENTAGE OF RELAXED DNA ([2]; inhibitor concentration 200 μM) | PERCENTAGE OF RELAXED DNA ([2]; inhibitor concentration 500 μM) | inhibition of topoisomerase I compared with camptothecin [1, 3] | inhibition of topoisomerase II compared with etoposide [2, 3] |
| --- | --- | --- | --- | --- | --- | --- | --- | --- | --- | --- |
| CC[C@@]1(O)C(=O)OCc2c1cc1n(c2=O)Cc2cc3ccccc3nc2-1 [Camptothecin] | 95.5 ± 1.4% | 64.2 ± 6.1% | 60.6 ± 12.0% | 55.6 ± 8.8% |  |  |  |  |  |  |
| COc1cc([C@@H]2c3cc4c(cc3[C@@H](O[C@@H]3O[C@@H]5CO[C@@H](C)O[C@H]5[C@H](O)[C@H]3O)[C@H]3COC(=O)[C@H]23)OCO4)cc(OC)c1O [Etoposide, reference compound] |  |  |  |  | 92.6 ± 2.5% | 28.5 ± 2.2% | 18.6 ± 1.4% | 12.0 ± 0.8% |  |  |
| CCC(O)(CC(=O)O)c1cc2n(c(=O)c1)Cc1cc3ccccc3nc1-2 (stereo not drawn) [Example 6, 3-Hydroxy-3-(4-oxo-4,6-dihydroindolizino[1,2-b]quinoline-2-yl)pentanoic Acid] | 95.2 ± 2.8% | 28.5 ± 3.5% | 15.5 ± 3.6% | 10.3 ± 2.8% | 98.8 ± 0.4% | 9.9 ± 0.7% | 11.5 ± 1.9% | 6.5 ± 1.0% | better inhibitor of topoisomerase I than camptothecin | better inhibitor of topoisomerase II than etoposide |
